PMC5839409, “Targeting intracellular B2 receptors using novel cell-penetrating antagonists to arrest growth and induce apoptosis in human triple-negative breast cancer” (Oncotarget, 2018)
Like-named read-outs stand apart in the source and are kept apart here. Square brackets hold non-standard residues; d marks the D form. Ends that are not written are not given here. Peptide text beside a SMILES is read from it. Oic = O=C(O)[C@@H]1C[C@@H]2CCCC[C@@H]2N1; Hyp = O=C(O)[C@@H]1C[C@@H](O)CN1; dTic = O=C(O)[C@H]1Cc2ccccc2CN1; 2Thi = N[C@@H](Cc1cccs1)C(=O)O

How the values were obtained:
MDA-MB-231 cells [1] = assay: MTT cytotoxicity (cell viability) assay; assay type: cell-based, human; settings: for cytotoxic effect: at a concentration of 100 µM
Method: (§1) Cell proliferation assay on MDA-MB-231 cells was determined with colorimetric MTT as we described. Briefly, cells were seeded in a 96 wells plate at 2,000 cells/well in DMEM media supplemented with 10% FBS for 24h at 37°C. Cells were then incubated with and without the B2RAs at the indicated concentrations for the time shown. At the end of treatment period, MTT (0.25 mg/ml) was added to the cells and incubated for 1h30 at 37°C. Thereafter, the cell medium was removed, the formazan product solubilized in acidified isopropanol (100 µl of 1N HCl/anhydrous isopropanol 1:25) and the absorbance determined at 570 nm with an ELISA microplate reader (Spectra Max Plus, Molecular Devices, Sunnyvale, CA). For assessing the cytotoxicity of B2RAs and chemotherapeutic agents (carmustine, doxorubicin, carboplatin, temozolomide and paclitaxel), cells were grown to confluency in multi-well plates and exposed to starving media (DMEM without FBS) for 24h before beginning of the antagonist treatment. Cells were then incubated with MTT and treated exactly as described above. Cell viability was expressed as a percentage of optical density (OD) values obtained upon treatment relative to control.

MDA-MB-231 cells [2] = assay: Anchorage-dependent clonogenic assay; assay type: cell-based, human; settings: for colony formation (antagonist effect): 1 to 100 µM (FR173657 up to 25 µM), 10-14 days
Method: MDA-MB-231 cells were plated at 200 cells/well in a six-well dish in 2 ml DMEM medium containing 10% FBS. […] After 10 to 14 days, colonies were fixed and stained with 0.5% methylene blue in 50% ethanol. Excess of staining solution was removed carefully with tap water and the plates were dried overnight. Colony counting and densitometric analyses (to measure total colony numbers and surface areas) were performed using the Image Pro Plus 5.1 software.

MDA-MB-231 cells [3] = assay: Drug-drug synergy experiments (MTT, combination index); assay type: cell-based, human; settings: IC25 ratios, 72h, CalcuSyn
Method: Interactions (synergy, additive, antagonistic activities) between CP-B2RAs (FR173657 and NG68) and chemotherapeutic drugs (doxorubicin and paclitaxel) were evaluated using MTT standard assays. Twenty-four hours after seeding, cells were treated with CP-B2RAs, the other testing drug, or in combination. For combination testing, CP-B2RAs or the other testing drugs were added to plate in triplicate wells in ratios of IC25 (IC25A: IC25B), and cells are incubated in drug-treated medium for 72h and cell viability determined by MTT. Synergy was determined by calculating combination index (CI) value with the formula CI = (CA,X / ICx,A) + (CB,X / ICx,B), where CA,X and CB,X are concentrations of drug A and drug B used in combination to achieve x% drug effect. ICx,A and ICx,B are concentrations for single agents to achieve the same effect. A CI of less than, equal to, and more than 1 indicates synergy, additivity, and antagonism, respectively.

MDA-MB-231 cells [4] = assay: MTT proliferation assay; assay type: cell-based, human; settings: B2R shRNA knockdown MDA-MB-231 cells vs scrambled shRNA
Method: as §1

MDA-MB-231 cells [5] = assay: Annexin V/PI apoptosis and beta-galactosidase senescence assays; assay type: cell-based, human
Method: The effect of B2RAs on cellular senescence was assessed using the Senescence β-Galactosidase Staining Kit (Cell Signaling). MDA-MB-231 cells were plated at 500 000 cells/well in 6-well plates, and serum-starved right before the beginning of treatments. Cells were treated with and without the B2RAs at the indicated concentrations for 72 h. At the end of treatment, surviving cells were fixed with 2% formaldehyde, 0.2% glutaraldehyde for 15 min at room temperature. Fixed cells were then washed and stained with fresh senescence-associated β-galactosidase stain solution (sodium phosphate buffer, pH 6.0, containing 1mg of X-gal (5-bromo-4-chloro-3-indolyl-β-d-galactopyranoside)/ml 40 mM citric acid, 5 mM potassium ferrocyanide, 5 mM potassium ferricyanide, 150 mM NaCl, 2 mM MgCl2) at 37°C. Staining was detected by light microscopy. As a positive control for senescence, we serum starved porcine cerebral microvascular endothelial cells (pCMVEC) (kindly provided by S Chemtob) for 48 h.
MDA-MB-231 and COS-1 cells were plated at 500,000/well in 6-well plates containing medium (10% FBS/DMEM), and allowed to adhere for about 18 h. On the next day, cells were serum-starved and then treated with and without the B2RAs at the indicated concentrations for 24 h. To assess induction of apoptosis due to treatment, we used the Annexin-V-FLUOS Staining kit (Roche) according to manufacturer’s specifications. Briefly, at the end of treatments, cells were harvested, rinsed and incubated in 100 µl of Annexin-V-FLUOS labeling solution (containing 2 µl of Annexin-V-Fluos reagent and 1 µl of PI (15 µg/ml)) for 15 min at room temperature. Cells were analyzed on a FACSCanto II flow cytometer (BD Biosciences). Early stage apoptosis was measured using annexin V-Fluos (RocheMolecular Biochemicals) in conjunction with PI (Sigma) to distinguish among early apoptosis and late apoptosis/necrosis. Bar diagram showing the distribution of early, late/necrotic cell populations.

MDA-MB-231 cells [6] = assay: PI staining cell cycle analysis by flow cytometry; assay type: cell-based, human; settings: 24 h treatment; HOE 140 up to 100 μM
Method: MDA-MB-231 were plated at 500,000/plate in 10 cm plates containing medium (10% FBS/DMEM), and allowed to adhere for about 18 h. Thereafter, cells were serum-starved and treated with and without the B2RAs at the indicated concentrations for 24 h. At the end of treatments, cells were harvested, rinsed and fixed with ice cold ethanol 95%, for 2 h at 4°C. Fixed cells were rehydrated with 800 µl PBS for 30 min, and then washed again with PBS to remove all traces of ethanol. Cells were treated with RNase for 30 min prior to staining. PI was added to cell suspension at a concentration of 15 µg/ml and incubated overnight at 4°C. PI staining was assessed by flow cytometry using a FACSCanto II flow cytometer (BD Biosciences).

MDA-MB-231 cells [7] = assay: Western blot of cell cycle, apoptosis and p38 proteins; assay type: cell-based, human
Method: For western blot analysis, appropriate amount of cell lysates or membrane and nuclear fractions (25–50 µg protein) were denatured, resolved on 9–12% SDS–PAGE and electrotransferred onto PVDF membranes. Blots were blocked using 5% nonfat dry milk and probed using appropriate primary antibodies in blocking buffer overnight at 4°C.

MDA-MB-231 cells [8] = assay: Cellular incorporation of B2RAs by LC-MS/MS; settings: 2.5 µM antagonist, 37°C
Method: Permeability of MDA-MB-231 cells to B2RAs was evaluated by either confocal microscopy or LC-MS/MS analyses. […] Mass spectrometry. […] At the end of treatments, cells underwent an acid wash to facilitate the release of surface bound ligands. Cell contents were released from hypotonic lysis using a 40:60 mixture of 15 mM Tris-HCl pH 7.4 / methanol. Cell lysates were next sonicated and subjected to protein precipitation following addition of 0.1% v/v formic acid. Precipitated proteins were removed by centrifugation and supernatants were concentrated using a Speedvac centrifugal evaporator. The sample was subjected to quantification using LC-MS/MS on a triple quadrupole mass spectrometer (Agilent G6410B). A calibration curve made from nine different concentrations of the reference compounds dissolved in suitable HPLC mobile phase solvents, was used to estimate antagonist intracellular content in each sample. The limit of quantification was 75 fmol (1 nM/75 µl).

[9] = Distribution coefficient n-octanol/PBS pH 7.4, shake flask
Method: Equal volumes of octanol and PBS (137 mM NaCl, 2.7 mM KCl, 10 mM Na2HPO4, 2 mM KH2PO4, pH 7.4), were mixed and allowed to equilibrate for 24h. The layers were then separated and stored at 4°C. At testing, the compounds (200 µM) was added to 200 µl of aqueous phase and mixed with an equal volume of octanol by vortexing for 2 min. The octanol/buffer solution was centrifuged for 5 min at 1000 x g. After separation into aqueous and octanol phases, compound content of the aqueous and octanol phases was quantified by RP-HPLC (Agilent1100 series). […] All octanol/buffer distribution studies were performed in duplicate. The octanol/buffer coefficient was calculated as the ratio of octanol layer to the buffer layer.

[10] = Homo sapiens, MDA-MB-231, MTT assay after 72h drug exposure, means ± s.e.m., n = 6 to 8, read-out: IC50 values (cytocidal activity)
[11] = 24h treatment, whole-cell lysates

Question: With O=NN(CCCl)C(=O)NCCCl [BCNU (carmustine), carmustine] as the molecule, how does the IC50 (MDA-MB-231 cells [1]; [10]) read?
Answer: 62 ± 1 µM

Question: For N=C(N)NCCC[C@H](NC(=O)[C@@H]1C[C@@H]2CCCC[C@@H]2N1C(=O)[C@H]1Cc2ccccc2CN1C(=O)[C@H](CO)NC(=O)[C@H](Cc1cccs1)NC(=O)CNC(=O)[C@@H]1C[C@@H](O)CN1C(=O)[C@@H]1CCCN1C(=O)[C@H](CCCNC(=N)N)NC(=O)[C@@H](CCCNC(=N)N)NC(=O)CNC(=O)CNC(=O)CNC(=O)[C@@H](CCCNC(=N)N)NC(=O)[C@@H](CCCNC(=N)N)NC(=O)[C@@H](CCCNC(=N)N)NC(=O)[C@@H](CCC(N)=O)NC(=O)[C@@H](CCCNC(=N)N)NC(=O)[C@@H](CCCNC(=N)N)NC(=O)[C@@H](CCCCN)NC(=O)[C@@H](CCCCN)NC(=O)[C@@H](CCCNC(=N)N)NC(=O)CN)C(=O)O [D-Tat-HOE 140 (NG68)] (H-G[dR][dK][dK][dR][dR][dQ][dR][dR][dR]GGG[dR]RP[Hyp]G[2Thi]S[dTic][Oic]R-OH; N-terminus and C-terminus assumed), which “colony formation (antagonist effect)” value (MDA-MB-231 cells [2]) is on record?
Answer: concentration-responsive clonal repression

Question: What about the “combination index (CI)” value (MDA-MB-231 cells [3]; combination with doxorubicin) of the same molecule?
Answer: below 1

Question: And the “combination index (CI)” value (MDA-MB-231 cells [3]; combination with paclitaxel)?
Answer: ~1

Question: And the “cytostatic activity after B2R downregulation” value (MDA-MB-231 cells [4])?
Answer: significantly attenuated

Question: And the “induction of apoptosis / senescence” value (MDA-MB-231 cells [5]; Annexin V and active caspase-3 positivity 24h, β-galactosidase 72h)?
Answer: underwent apoptosis, but not senescence

Question: What about the cell cycle distribution (MDA-MB-231 cells [6]) of the same molecule?
Answer: tend to induce G0/G1 cell cycle arrest

Question: What about the “expression of BAD and p27Kip1” value (MDA-MB-231 cells [7]; [11]) of the same molecule?
Answer: increased expression

Question: And the “levels of MAPK and cyclin A” value (MDA-MB-231 cells [7]; [11])?
Answer: decreased the levels of MAPK and cyclin A

Question: And the “phosphorylation of p38” value (MDA-MB-231 cells [7]; over time)?
Answer: significantly increased the phosphorylation

Question: And the Cellular incorporation (MDA-MB-231 cells [8]; 15 min)?
Answer: 5 pmol/10^6 cells

Question: What about the Cellular incorporation (MDA-MB-231 cells [8]; 4 h) of the same molecule?
Answer: 14 pmol/10^6 cells

Question: And the logD ([9]; pH 7.4, Distribution coefficient log D, n-octanol/PBS (pH 7.4), shake flask, RP-HPLC quantification)?
Answer: -3.02

Question: Which results are given for Cn1nnc2c(C(N)=O)ncn2c1=O [Temozolomide (Temodar), Temozolomide]?
Answer: IC50 (MDA-MB-231 cells [1]; [10]): > 100 µM; cytotoxic effect (MDA-MB-231 cells [1]): did not show significant cytotoxic effect

Question: With “DTat: vector alone; modified HIV-1 Tat peptide sequence GRKKRRQRRR in D-configuration (G[dR][dK][dK][dR][dR][dQ][dR][dR][dR])” as the molecule, how does the “intrinsic activity of vector alone” value (MDA-MB-231 cells [5]; up to 100 μM, in any of the above assays) read?
Answer: did not exhibit intrinsic activity

Question: Which “clonogenicity, inhibitor alone” value (MDA-MB-231 cells [2]; 10 µM, 14 days) does the source give for C[S+]([O-])c1ccc(-c2nc(-c3ccncc3)c(-c3ccc(F)cc3)[nH]2)cc1 (stereo not drawn) [SB203580] here?
Answer: had no effect

Question: Which IC50 (MDA-MB-231 cells [1]; [10]) does the source give for COc1cccc2c1C(=O)c1c(O)c3c(c(O)c1C2=O)C[C@@](O)(C(=O)CO)C[C@@H]3O[C@H]1C[C@H](N)[C@H](O)[C@H](C)O1 [Adriamycin (doxorubicin), doxorubicin] here?
Answer: 2 ± 1 µM

Question: Which IC50 (MDA-MB-231 cells [1]; [10]) does the source give for CC(=O)O[C@H]1C(=O)[C@@]2(C)[C@H]([C@H](OC(=O)c3ccccc3)[C@]3(O)C[C@H](OC(=O)[C@H](O)[C@@H](NC(=O)c4ccccc4)c4ccccc4)C(C)=C1C3(C)C)[C@]1(OC(C)=O)CO[C@@H]1C[C@@H]2O [Paclitaxel (Taxol), Paclitaxel] here?
Answer: 10 ± 1 µM

Question: Which IC50 (MDA-MB-231 cells [1]; 72 h) does the source give for C[C@H](CCC(=O)N[C@H](CCCNC(=N)N)C(=O)N[C@@H](CCCNC(=N)N)C(=O)N1CCC[C@H]1C(=O)N1C[C@H](O)C[C@H]1C(=O)NCC(=O)N[C@@H](Cc1cccs1)C(=O)N[C@@H](CO)C(=O)N1Cc2ccccc2C[C@@H]1C(=O)N1[C@H](C(=O)N[C@@H](CCCNC(=N)N)C(=O)O)C[C@@H]2CCCC[C@@H]21)[C@H]1CC[C@H]2[C@@H]3[C@H](O)C[C@@H]4C[C@H](O)CC[C@]4(C)[C@H]3C[C@H](O)[C@]12C [Cholic-HOE 140 (NG134)] here?
Answer: > 100 µM

Question: And the “colony formation (antagonist effect)” value (MDA-MB-231 cells [2])?
Answer: concentration-responsive clonal repression

Question: What about the Cellular incorporation (MDA-MB-231 cells [8]; 15 min) of the same molecule?
Answer: 13 pmol/10^6 cells

Question: And the Cellular incorporation (MDA-MB-231 cells [8]; 4 h)?
Answer: 22 pmol/10^6 cells

Question: For N.N.O=C([O-])C1(C(=O)[O-])CCC1.[Pt+2] [Carboplatin], which IC50 (MDA-MB-231 cells [1]; MTT assay after 72h drug exposure, means ± s.e.m., n = 6 to 8, read-out: IC50 values (cytocidal activity)) is on record?
Answer: > 100 µM

Question: What about the cytotoxic effect (MDA-MB-231 cells [1]) of the same molecule?
Answer: did not show significant cytotoxic effect

Question: Which IC50 (MDA-MB-231 cells [1]; 72 h) does the source give for NC(N)=NCCC[C@@H](N)C(=O)N[C@@H](CCCN=C(N)N)C(=O)N1CCC[C@H]1C(=O)N1C[C@H](O)C[C@H]1C(=O)NCC(=O)N[C@@H](Cc1cccs1)C(=O)N[C@@H](CO)C(=O)N1Cc2ccccc2C[C@@H]1C(=O)N1[C@H](C(=O)N[C@@H](CCCN=C(N)N)C(=O)O)C[C@@H]2CCCC[C@@H]21 [HOE 140] here?
Answer: > 100 µM

Question: What about the Cellular incorporation (MDA-MB-231 cells [8]; 15 min) of the same molecule?
Answer: 0 pmol/10^6 cells

Question: And the Cellular incorporation (MDA-MB-231 cells [8]; 4 h)?
Answer: 0 pmol/10^6 cells

Question: What about the Cellular incorporation (MDA-MB-231 cells [8]; 24 h) of the same molecule?
Answer: 0 pmol/10^6 cells

Question: And the logD ([9]; pH 7.4)?
Answer: -3.06
